{"source": "PubChem BioAssay (NCI)", "experiment_in_all_cases": "inhibition of tumour cell growth, NCI panel, 48 h", "key": {"EKVX NSCLC": {"tested_on": "EKVX NSCLC"}, "RXF 393 renal": {"tested_on": "RXF 393 renal"}, "HOP-62 NSCLC": {"tested_on": "HOP-62 NSCLC"}, "SK-MEL-28 melanoma": {"tested_on": "SK-MEL-28 melanoma"}, "K-562 leukemia": {"tested_on": "K-562 leukemia"}, "A498 renal": {"tested_on": "A498 renal"}, "HT29 colon": {"tested_on": "HT29 colon"}, "MDA-MB-231 breast": {"tested_on": "MDA-MB-231 breast"}, "MOLT-4 leukemia": {"tested_on": "MOLT-4 leukemia"}, "UACC-257 melanoma": {"tested_on": "UACC-257 melanoma"}, "NCI-H460 lung": {"tested_on": "NCI-H460 lung"}, "HOP-92 NSCLC": {"tested_on": "HOP-92 NSCLC"}, "SF-539 CNS": {"tested_on": "SF-539 CNS"}, "HCT-116 colon": {"tested_on": "HCT-116 colon"}, "SK-OV-3 ovarian": {"tested_on": "SK-OV-3 ovarian"}, "UO-31 renal": {"tested_on": "UO-31 renal"}, "SF-295 CNS": {"tested_on": "SF-295 CNS"}, "MDA-MB-435": {"tested_on": "MDA-MB-435"}, "HCC-2998 colon": {"tested_on": "HCC-2998 colon"}, "CAKI-1 renal": {"tested_on": "CAKI-1 renal"}, "SNB-75 CNS": {"tested_on": "SNB-75 CNS"}, "NCI/ADR-RES ovarian": {"tested_on": "NCI/ADR-RES ovarian"}, "MCF7 breast": {"tested_on": "MCF7 breast"}, "T-47D breast": {"tested_on": "T-47D breast"}, "OVCAR-5 ovarian": {"tested_on": "OVCAR-5 ovarian"}}, "note": "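These data come from cells grown in 96-well plates and exposed to compound for 48 hours at five concentrations. GI50 is the concentration that inhibits growth by half. TGI is the concentration that stops growth completely.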", "data": [{"compound": "Fc1ccc(-c2cc3nc(C(Cl)Cl)nc(-c4ccccc4)n3n2)cc1", "values": [{"measurement": "GI50", "setting": "EKVX NSCLC", "result": 2040, "unit": "nM"}, {"measurement": "TGI", "setting": "EKVX NSCLC", "result": 5580, "unit": "nM"}, {"measurement": "GI50", "setting": "RXF 393 renal", "result": 1210, "unit": "nM"}, {"measurement": "TGI", "setting": "RXF 393 renal", "result": 2550, "unit": "nM"}, {"measurement": "GI50", "setting": "HOP-62 NSCLC", "result": 1480, "unit": "nM"}, {"measurement": "TGI", "setting": "HOP-62 NSCLC", "result": 3720, "unit": "nM"}, {"measurement": "GI50", "setting": "SK-MEL-28 melanoma", "result": 2010, "unit": "nM"}, {"measurement": "TGI", "setting": "SK-MEL-28 melanoma", "result": 3810, "unit": "nM"}, {"measurement": "GI50", "setting": "K-562 leukemia", "result": 2580, "unit": "nM"}, {"measurement": "TGI", "setting": "K-562 leukemia", "result": "> 100000", "unit": "nM"}, {"measurement": "GI50", "setting": "A498 renal", "result": 1810, "unit": "nM"}, {"measurement": "TGI", "setting": "A498 renal", "result": 3550, "unit": "nM"}, {"measurement": "GI50", "setting": "HT29 colon", "result": 737, "unit": "nM"}, {"measurement": "TGI", "setting": "HT29 colon", "result": 2670, "unit": "nM"}, {"measurement": "GI50", "setting": "MDA-MB-231 breast", "result": 1760, "unit": "nM"}, {"measurement": "TGI", "setting": "MDA-MB-231 breast", "result": 5760, "unit": "nM"}, {"measurement": "GI50", "setting": "MOLT-4 leukemia", "result": 3180, "unit": "nM"}, {"measurement": "TGI", "setting": "MOLT-4 leukemia", "result": "> 100000", "unit": "nM"}, {"measurement": "GI50", "setting": "UACC-257 melanoma", "result": 2110, "unit": "nM"}, {"measurement": "TGI", "setting": "UACC-257 melanoma", "result": 4230, "unit": "nM"}, {"measurement": "GI50", "setting": "NCI-H460 lung", "result": 513, "unit": "nM"}, {"measurement": "TGI", "setting": "NCI-H460 lung", "result": 2070, "unit": "nM"}, {"measurement": "GI50", "setting": "HOP-92 NSCLC", "result": 1900, "unit": "nM"}, {"measurement": "TGI", "setting": "HOP-92 NSCLC", "result": 4810, "unit": "nM"}, {"measurement": "GI50", "setting": "SF-539 CNS", "result": 1970, "unit": "nM"}, {"measurement": "TGI", "setting": "SF-539 CNS", "result": 5120, "unit": "nM"}, {"measurement": "GI50", "setting": "HCT-116 colon", "result": 1680, "unit": "nM"}, {"measurement": "TGI", "setting": "HCT-116 colon", "result": 4840, "unit": "nM"}, {"measurement": "GI50", "setting": "SK-OV-3 ovarian", "result": 2190, "unit": "nM"}, {"measurement": "TGI", "setting": "SK-OV-3 ovarian", "result": 5130, "unit": "nM"}, {"measurement": "GI50", "setting": "UO-31 renal", "result": 1730, "unit": "nM"}, {"measurement": "TGI", "setting": "UO-31 renal", "result": 4200, "unit": "nM"}, {"measurement": "GI50", "setting": "SF-295 CNS", "result": 2210, "unit": "nM"}, {"measurement": "TGI", "setting": "SF-295 CNS", "result": 5630, "unit": "nM"}, {"measurement": "GI50", "setting": "MDA-MB-435", "result": 1810, "unit": "nM"}, {"measurement": "TGI", "setting": "MDA-MB-435", "result": 3770, "unit": "nM"}, {"measurement": "GI50", "setting": "HCC-2998 colon", "result": 1180, "unit": "nM"}, {"measurement": "TGI", "setting": "HCC-2998 colon", "result": 2550, "unit": "nM"}, {"measurement": "GI50", "setting": "CAKI-1 renal", "result": 1820, "unit": "nM"}, {"measurement": "TGI", "setting": "CAKI-1 renal", "result": 6200, "unit": "nM"}, {"measurement": "GI50", "setting": "SNB-75 CNS", "result": 7550, "unit": "nM"}, {"measurement": "TGI", "setting": "SNB-75 CNS", "result": "> 100000", "unit": "nM"}, {"measurement": "GI50", "setting": "NCI/ADR-RES ovarian", "result": 1430, "unit": "nM"}, {"measurement": "TGI", "setting": "NCI/ADR-RES ovarian", "result": 6210, "unit": "nM"}, {"measurement": "GI50", "setting": "MCF7 breast", "result": 673, "unit": "nM"}, {"measurement": "TGI", "setting": "MCF7 breast", "result": 7370, "unit": "nM"}, {"measurement": "GI50", "setting": "T-47D breast", "result": 1860, "unit": "nM"}, {"measurement": "TGI", "setting": "T-47D breast", "result": 5990, "unit": "nM"}, {"measurement": "GI50", "setting": "OVCAR-5 ovarian", "result": 2290, "unit": "nM"}, {"measurement": "TGI", "setting": "OVCAR-5 ovarian", "result": 6770, "unit": "nM"}]}]}
